{"source": "patent US9995734B2", "about": "“Human T cell line assay for evaluating the immunologic identity of glatiramer acetate preparations” (Mylan Inc., priority 2013, dated 2018)", "key": {"[1]": {"test_system": "Donor 6 GMA-Reactive T-Cell Lines", "assay": "ATP proliferation assay, Donor 6 GMA-reactive T-cell lines", "type": "cell-based, human", "settings": "Day 35, GMA Lot 001 and COP 10 μg/mL"}, "[2]": {"test_system": "panel of six GA-specific long-term human T-cell lines (222-2D8, 222-2F12, 165-F3C, 165-F6C, 205-1C4, 205-1F4)", "assay": "GA-specific human T-cell line panel assay (ATP proliferation): GA test lots and altered GA lots compared with Copaxone", "type": "cell-based", "settings": "for ATP Proliferation Assay, Mean / Proliferation (ATP assay), Mean: 4 days; for Proliferation (ATP assay), Mean: Table 95", "procedure": "Proliferation assays, using the panel of six GA-specific long-term human T-cell lines listed in Table 78, were carried out to compare […] GA test lots, GMA/009/14 (GA Lot 009), GMA/010/14 (GA Lot 010), GMA/011/14 (GA Lot 011), GMA/012/14 (GA Lot 012), GMA/013/14 (GA Lot 013), GMA/014/14 (GA Lot 014), GA Lot 016, GMA/017/14 (GA Lot 017), GMA/018/14 (GA Lot 018), and GMA/070/14 (GA Lot 070), manufactured using standard methods, to a Copaxone reference lot.\nEach T-cell line was restimulated using methods described above, using five concentrations of the reference antigen (0.5, 1, 2, 2.5, and 5 μg/ml Copaxone), the same five concentrations of test antigen (the nine GA test lots), and a no antigen control, in the presence of 5×10^4 mitomycin-treated autologous B-LCL. Proliferation was measured by ATP assay after 4 days of incubation with antigen, using methods described previously.\nThe percentages in the last column of each table were calculated as follows: Proliferation response to test antigen minus proliferation response to control (no antigen)÷proliferation response to reference antigen minus proliferation response to control (no antigen)\nThe panel of six GA-specific human T-cell lines listed in Table 78 above was used to test the immunological identity of altered GA lots to Copaxone.\nProliferation assays using the panel of six GA-specific T-cell lines (Table 77) were carried out, to compare negative GA lots 051F, 054F, 055F, 057F, 058F, 059F, and 060F (test lots), to Copaxone (reference lot). Each cell line was restimulated using 5 concentrations of reference antigen (Copaxone) and test antigen (the negative GA lots), including a no antigen control (in the presence of 5×10^4 mitomycin-treated autologous B-LCL). Proliferation was measured by ATP assay after 4 days of incubation with antigen, using methods described previously.\nThe percentages in the last column of each table were calculated as follows: Proliferation response to test antigen minus proliferation response to control (no antigen)÷proliferation response to reference antigen minus proliferation response to control (no antigen)."}}, "note": "Where “and” joins values, the source holds several entries; their conditions need not be identical. Equal entries are not always repeated.", "data": [{"substance": "glatiramer acetate [COP]", "values": [{"measurement": "ATP proliferation assay", "setting": "[1]; Cell line 224-B6-001", "value": 78357, "unit": "RLU"}, {"measurement": "ATP proliferation assay", "setting": "[1]; Cell line 224-B7-001", "value": 20586, "unit": "RLU"}, {"measurement": "ATP proliferation assay", "setting": "[1]; Cell line 224-B11-001", "value": 27861, "unit": "RLU"}, {"measurement": "ATP proliferation assay", "setting": "[1]; Cell line 224-C4-001", "value": 52771, "unit": "RLU"}, {"measurement": "ATP proliferation assay", "setting": "[1]; Cell line 224-C11-001", "value": 87933, "unit": "RLU"}, {"measurement": "ATP proliferation assay", "setting": "[1]; Cell line 224-D2-001", "value": 26027, "unit": "RLU"}, {"measurement": "ATP proliferation assay", "setting": "[1]; Cell line 224-D6-001", "value": 68767, "unit": "RLU"}, {"measurement": "ATP proliferation assay", "setting": "[1]; Cell line 224-E2-001", "value": 233094, "unit": "RLU"}, {"measurement": "ATP proliferation assay", "setting": "[1]; Cell line 224-E7-001", "value": 137556, "unit": "RLU"}, {"measurement": "ATP proliferation assay", "setting": "[1]; Cell line 224-F4-001", "value": 114667, "unit": "RLU"}, {"measurement": "ATP proliferation assay", "setting": "[1]; Cell line 224-G2-001", "value": 227257, "unit": "RLU"}, {"measurement": "ATP proliferation assay", "setting": "[1]; Cell line 224-G10-001", "value": 229933, "unit": "RLU"}, {"measurement": "ATP proliferation assay", "setting": "[1]; Cell line 224-G11-001", "value": 91466, "unit": "RLU"}, {"measurement": "ATP Proliferation Assay, Mean", "setting": "[2]; T-cell line 165-F3C, 0.5 μg/mL", "value": "4,783"}, {"measurement": "ATP Proliferation Assay, Mean", "setting": "[2]; T-cell line 165-F3C, 1 μg/mL", "value": "22,290"}, {"measurement": "ATP Proliferation Assay, Mean", "setting": "[2]; T-cell line 165-F3C, 2 μg/mL", "value": "53,771"}, {"measurement": "ATP Proliferation Assay, Mean", "setting": "[2]; T-cell line 165-F3C, 2.5 μg/mL", "value": "54,539"}, {"measurement": "ATP Proliferation Assay, Mean", "setting": "[2]; T-cell line 165-F3C, 5 μg/mL", "value": "58,110"}, {"measurement": "ATP Proliferation Assay, Mean", "setting": "[2]; T-cell line 165-F6C, 0.5 μg/mL", "value": "3,328"}, {"measurement": "ATP Proliferation Assay, Mean", "setting": "[2]; T-cell line 165-F6C, 1 μg/mL", "value": "4,620"}, {"measurement": "ATP Proliferation Assay, Mean", "setting": "[2]; T-cell line 165-F6C, 2 μg/mL", "value": "13,255"}, {"measurement": "ATP Proliferation Assay, Mean", "setting": "[2]; T-cell line 165-F6C, 2.5 μg/mL", "value": "18,726"}, {"measurement": "Mean, ATP proliferation assay", "setting": "[2]; T-cell line 165-F6C, 5 μg/mL", "value": "34,012 and 34,995 and 56,466 and 56,465 and 42,493 and 41,233 and 36,303"}, {"measurement": "ATP Proliferation Assay, Mean", "setting": "[2]; T-cell line 165-F6C, 5 μg/mL", "value": "38,653"}, {"measurement": "ATP Proliferation Assay, Mean", "setting": "[2]; T-cell line 205-1C4, 0.5 μg/mL", "value": 932}, {"measurement": "ATP Proliferation Assay, Mean", "setting": "[2]; T-cell line 205-1C4, 1 μg/mL", "value": "2,481"}, {"measurement": "ATP Proliferation Assay, Mean", "setting": "[2]; T-cell line 205-1C4, 2 μg/mL", "value": "9,432"}, {"measurement": "ATP Proliferation Assay, Mean", "setting": "[2]; T-cell line 205-1C4, 2.5 μg/mL", "value": "13,744"}, {"measurement": "ATP Proliferation Assay, Mean", "setting": "[2]; T-cell line 205-1C4, 5 μg/mL", "value": "45,451"}, {"measurement": "ATP Proliferation Assay, Mean", "setting": "[2]; T-cell line 205-1F4, 0.5 μg/mL", "value": 548}, {"measurement": "ATP Proliferation Assay, Mean", "setting": "[2]; T-cell line 205-1F4, 1 μg/mL", "value": "1,906"}, {"measurement": "ATP Proliferation Assay, Mean", "setting": "[2]; T-cell line 205-1F4, 2 μg/mL", "value": "9,959"}, {"measurement": "ATP Proliferation Assay, Mean", "setting": "[2]; T-cell line 205-1F4, 2.5 μg/mL", "value": "13,589"}, {"measurement": "ATP Proliferation Assay, Mean", "setting": "[2]; T-cell line 205-1F4, 5 μg/mL", "value": "18,491"}, {"measurement": "ATP Proliferation Assay, Mean", "setting": "[2]; T-cell line 222-2D8, 0.5 μg/mL", "value": "5,873"}, {"measurement": "ATP Proliferation Assay, Mean", "setting": "[2]; T-cell line 222-2D8, 1 μg/mL", "value": "14,017"}, {"measurement": "ATP Proliferation Assay, Mean", "setting": "[2]; T-cell line 222-2D8, 2 μg/mL", "value": "90,328"}, {"measurement": "ATP Proliferation Assay, Mean", "setting": "[2]; T-cell line 222-2D8, 2.5 μg/mL", "value": "129,878"}, {"measurement": "ATP Proliferation Assay, Mean", "setting": "[2]; T-cell line 222-2D8, 5 μg/mL", "value": "171,116"}, {"measurement": "ATP Proliferation Assay, Mean", "setting": "[2]; T-cell line 222-2F12, 0.5 μg/mL", "value": "10,879"}, {"measurement": "ATP Proliferation Assay, Mean", "setting": "[2]; T-cell line 222-2F12, 1 μg/mL", "value": "27,042"}, {"measurement": "ATP Proliferation Assay, Mean", "setting": "[2]; T-cell line 222-2F12, 2 μg/mL", "value": "105,024"}, {"measurement": "ATP Proliferation Assay, Mean", "setting": "[2]; T-cell line 222-2F12, 2.5 μg/mL", "value": "115,241"}, {"measurement": "ATP Proliferation Assay, Mean", "setting": "[2]; T-cell line 222-2F12, 5 μg/mL", "value": "129,291"}, {"measurement": "Proliferation (ATP assay), Mean", "setting": "[2]; T-cell line 165-F3C, GA conc. 0.5 μg/mL", "value": "3,154"}, {"measurement": "Proliferation (ATP assay), Mean", "setting": "[2]; T-cell line 165-F3C, GA conc. 1 μg/mL", "value": "9,050"}, {"measurement": "Proliferation (ATP assay), Mean", "setting": "[2]; T-cell line 165-F3C, GA conc. 2 μg/mL", "value": "27,693"}, {"measurement": "Proliferation (ATP assay), Mean", "setting": "[2]; T-cell line 165-F3C, GA conc. 2.5 μg/mL", "value": "28,018"}, {"measurement": "Proliferation (ATP assay), Mean", "setting": "[2]; T-cell line 165-F3C, GA conc. 5 μg/mL", "value": "32,151"}, {"measurement": "Proliferation (ATP assay), Mean", "setting": "[2]; T-cell line 165-F6C, GA conc. 0.5 μg/mL", "value": 863}, {"measurement": "Proliferation (ATP assay), Mean", "setting": "[2]; T-cell line 165-F6C, GA conc. 1 μg/mL", "value": "1,838"}, {"measurement": "Proliferation (ATP assay), Mean", "setting": "[2]; T-cell line 165-F6C, GA conc. 2 μg/mL", "value": "8,163"}]}]}
